These results are taken from patent publication US20190375786A1, “STABLE PEPTIDES AND METHODS OF USE THEREOF” (Fred Hutchinson Cancer Research Center, priority 2016, published 2019).

Positions of bridges follow the written chain, without caps; N, C: chain ends. Residues, ends and D or L forms follow the SMILES beside them.

In one data set the target is trypsin (Sus scrofa, UniProt P00761). The data set can be described thus: Trypsin digestion resistance of soluble peptide, RP-HPLC. The class given is in vitro ADME, porcine. Also on record: purchased Sigma Aldrich 6567. As to conditions: 500 U/ml trypsin, 30 minutes at 37.5° C.; HPLC peak vs untreated peptide. On the procedure: (§1) Peptides were first suspended in 500 μl of ddH2O to a stock concentration of 2 mg/ml. Reactions were prepared by adding 12.5 μg of peptide from the stock solution to a 10 mM solution of DTT in PBS and allowed to incubate at room temperature for 30 minutes. Other reactions were prepared with 12.5 μg peptide and 500 U/ml trypsin in 25 mM Tris/75 mM NaCl buffer (pH 7.0) and incubated for 30 minutes at 37.5° C. These reactions were then quenched with 5 μg of soybean trypsin inhibitor (I) and, in some cases, 10 mM dithiothreitol (DTT). Reversed phase HPLC (RP-HPLC) was run on samples using an Agilent 1260 HPLC equipped with a C-18 Poroshell 120B column. Sample were analyzed by a gradient method with a mobile phase of Solvent A (water with 0.1% TFA) and Solvent B (acetonitrile with 0.1% TFA). Solvent B was ramped up from 5%-45% of the mobile phase over a period of 10 minutes. For testing pepsin digestion resistance, reactions were prepared with 12.5 μg peptide with or without 500 U/ml pepsin in simulated gastric fluid (SGF; pH 1.05; […] sodium chloride in 0.7% (v/v) hydrochloric acid) and were incubated for 30 minutes at 37.5° C. For testing temperature resistance, peptides were incubated at 70° C., 75° C., or 100° C. for one hour in 0.5 mM PBS, pelleted, and then the supernatant was analyzed by HPLC.
Sequence of trypsin (P00761 9-231): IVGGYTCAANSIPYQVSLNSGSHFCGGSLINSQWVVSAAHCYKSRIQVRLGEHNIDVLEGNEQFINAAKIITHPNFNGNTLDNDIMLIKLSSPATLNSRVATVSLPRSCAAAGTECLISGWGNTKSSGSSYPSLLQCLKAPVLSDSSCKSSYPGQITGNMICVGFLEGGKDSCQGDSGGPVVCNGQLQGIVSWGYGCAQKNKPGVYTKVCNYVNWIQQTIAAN
(§2) This example illustrates peptide stability in biological conditions including in the presence of reducing agents, proteases, oxidative conditions, acidic conditions, and simulated gastric fluids. […] Various peptides were suspended in 500 μl of ddH2O at a stock concentration of 2 mg/ml. This was then diluted in accord with the reaction conditions to prevent adverse buffering effects. Reactions were prepared with 12.5 μg peptide dissolved in solution and, in some samples, additionally suspended in a 10 mM solution of DTT, simulated gastric fluid (pH 1.05; […] sodium chloride in 0.7% (v/v) hydrochloric acid), 500 U pepsin (5000 U/ml pepsin), 50 U trypsin (500 U/ml trypsin) with 1 mg/ml inhibitor in PBS, or a combination of any of these conditions. All protease reactions were incubated for 30 min at room temperature and then quenched. Pepsin reactions were quenched by adding Tris base to a final concentration of 0.075 M. Trypsin reactions were quenched by adding excess soybean trypsin inhibitor. RP-HPLC was then run on samples using an Agilent 1260 HPLC equipped with a C-18 Poroshell 120B column. Sample were analyzed by a gradient method with a mobile phase of Solvent A (water with 0.1% TFA) and Solvent B (acetonitrile with 0.1% TFA). Solvent B was ramped up from 5%-45% of the mobile phase over a period of 10 minutes.
Soluble peptides were exposed to 500 U/mL porcine trypsin and analyzed by HPLC. Protease resistance was also assessed by using SDPR-displaying peptides. The SDPR vector is similar to the a surface display GFP FasL(SDGF) vector, but contains a C-terminal 6×His tag (SEQ ID NO: 180) and all basic or aromatic amino acid residues on the stalk removed. Protease resistance is then tested by incubation of cells displaying peptides with trypsin or chymotrypsin, followed by incubation in 10 mM DTT, and staining with an anti-6×His fluorophore-labeled antibody (“6×His” disclosed as SEQ ID NO: 180). If peptides are uncleaved, they retain the His tag and are stained with by the antibody. A control protease-sensitive knottin peptide (SK) was used as a positive control. Cells displaying peptides were treated with up to 40 μg/ml trypsin or chymotrypsin.
FIG. 21 illustrates high performance liquid chromatograph (HPLC) traces of peptides after trypsin digestion. […] The assay was carried out by reconstituting 1 mg porcine trypsin (Sigma Aldrich 6567) in 1 mL of 1 mM HCl. Trypsin was provided at a concentration of 10,000 u/mL and thus, 5 μl of stock solution was equivalent to using 50 U of trypsin in each reaction. Soybean trypsin inhibitor (SA T9128) was prepared at 1 mg/mL of in H2O. […]

For a further data set, the target named is pepsin (Sus scrofa, UniProt P00791). The data set can be described thus: Pepsin digestion resistance in simulated gastric fluid, RP-HPLC. The class given is in vitro ADME, porcine. Also on record: purchased Sigma Aldrich P7012. As to conditions: 500 U/ml pepsin in SGF pH 1.05, 30 minutes at 37.5° C.; HPLC peak vs untreated peptide. How it is done:
Peptides were first suspended in 500 ul of ddH2O to a stock concentration of 2 mg/ml. Reactions were prepared by adding 12.5 ug of peptide from the stock solution to a 10 mM solution of DTT in PBS and allowed to incubate at room temperature for 30 minutes. Other reactions were prepared with 12.5 μg peptide with or without 500 U/ml pepsin in simulated gastric fluid (SGF; pH 1.05; […] sodium chloride in 0.7% (v/v) hydrochloric acid) and were incubated for 30 minutes at 37.5° C. Some reactions were quenched with a final concentration of 100 mM Tris base and 10 mM dithiothreitol (DTT). Some reactions were performed in all of the above components, including simulated gastric fluid, pepsin, Tris, and DTT (referred to as SPTD). Reversed phase HPLC (RP-HPLC) was run on samples using an Agilent 1260 HPLC equipped with a C-18 Poroshell 120B column. Sample were analyzed by a gradient method with a mobile phase of Solvent A (water with 0.1% TFA) and Solvent B (acetonitrile with 0.1% TFA). Solvent B was ramped up from 5%-45% of the mobile phase over a period of 10 minutes. Peptides were detected at an absorbance of 214 nm and 280 nm.
as §1, §2
FIG. 20 illustrates high performance liquid chromatograph (HPLC) traces of peptides after pepsin digestion. […]

Sequence of pepsin (P00791 60-385): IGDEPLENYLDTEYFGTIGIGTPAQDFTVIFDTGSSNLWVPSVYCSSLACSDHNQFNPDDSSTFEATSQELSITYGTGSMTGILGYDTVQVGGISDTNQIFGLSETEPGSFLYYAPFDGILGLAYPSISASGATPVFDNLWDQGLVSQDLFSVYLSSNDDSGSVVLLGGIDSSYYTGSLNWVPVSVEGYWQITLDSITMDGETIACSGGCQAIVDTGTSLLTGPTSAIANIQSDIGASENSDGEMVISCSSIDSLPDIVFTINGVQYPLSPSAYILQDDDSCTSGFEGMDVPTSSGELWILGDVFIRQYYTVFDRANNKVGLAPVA

For `CC[C@H](C)[C@H](NC(=O)[C@H](CC(=O)O)NC(=O)[C@@H](NC(=O)[C@@H]1CCCN1C(=O)[C@H](CCCNC(=N)N)NC(=O)[C@H](CO)NC(=O)CN)[C@@H](C)O)C(=O)N[C@@H](CCCCN)C(=O)N[C@H]1CSSC[C@@H]2NC(=O)[C@H](CCCNC(=N)N)NC(=O)CNC(=O)[C@H](CC(N)=O)NC(=O)[C@H]([C@@H](C)O)NC(=O)[C@H](CCCCN)NC(=O)CNC(=O)[C@H](Cc3ccccc3)NC(=O)[C@H](CCCNC(=N)N)NC(=O)[C@H](CO)NC(=O)[C@H](CCCCN)NC(=O)[C@@H]3CSSC[C@@H](C(=O)N[C@@H](Cc4ccccc4)C(=O)O)NC(=O)[C@H](CC(=O)O)NC(=O)[C@H](CSSC[C@H](NC(=O)[C@H](CCC(N)=O)NC(=O)[C@H](Cc4ccc(O)cc4)NC(=O)[C@H](CO)NC(=O)[C@H](C)NC(=O)[C@H](CO)NC1=O)C(=O)N[C@@H](Cc1ccccc1)C(=O)N1CCC[C@H]1C(=O)N[C@@H](C(C)C)C(=O)N3)NC(=O)[C@H](CC(C)C)NC(=O)CNC(=O)[C@H](CC(N)=O)NC(=O)[C@H](C(C)C)NC2=O` [compound 10] (H-GSRPTDIKCSASYQCFPVCKSRFGKTNGRCVNGLCDCF-OH; disulfide 9-30, 15-35, 19-37), at trypsin, the “Resistance to Trypsin (500 U/ml)” value was “Low (A peptide classified as low indicates that the majority (over 75%) of the HPLC peak of the treated peptide disappeared as compared to the HPLC peak of the untreated peptide)”. In addition, the “Resistance to Pepsin (500 U/ml)” value at pepsin is recorded as “High (A peptide classified as high indicates that the majority (at least 75%) of the HPLC peak of the treated peptide is still present as compared to the HPLC peak of the untreated peptide)”.

In the case of `CSCC[C@@H]1NC(=O)[C@@H]2CSSC[C@H](NC(=O)[C@H](CCCCN)NC(=O)[C@@H](NC(=O)[C@H](CC(=O)O)NC(=O)[C@@H](NC(=O)[C@H](Cc3ccccc3)NC(=O)[C@H](CCC(N)=O)NC(=O)[C@H](CO)NC(=O)CN)[C@@H](C)O)C(C)C)C(=O)N[C@@H]([C@@H](C)O)C(=O)NCC(=O)N[C@@H](CO)C(=O)N[C@@H](CCCCN)C(=O)N[C@@H](CCC(N)=O)C(=O)N[C@H]3CSSC[C@H](NC(=O)[C@H](CCCCN)NC(=O)CNC(=O)[C@H](CC(N)=O)NC1=O)C(=O)N[C@@H](CCCNC(=N)N)C(=O)N[C@H](C(=O)N[C@@H](Cc1ccc(O)cc1)C(=O)N[C@@H](CO)C(=O)O)CSSC[C@H](NC(=O)[C@H](C(C)C)NC(=O)[C@@H]1CCCN1C(=O)[C@H](Cc1c[nH]c4ccccc14)NC3=O)C(=O)N[C@@H](CCCCN)C(=O)N[C@@H](CCC(N)=O)C(=O)N[C@@H](CCSC)C(=O)N[C@@H](Cc1ccccc1)C(=O)NCC(=O)N[C@@H](CCCCN)C(=O)N1CCC[C@H]1C(=O)N[C@@H](CC(N)=O)C(=O)NCC(=O)N[C@@H](CCCCN)C(=O)N2` [compound 12] (H-GSQFTDVKCTGSKQCWPVCKQMFGKPNGKCMNGKCRCYS-OH; disulfide 9-30, 15-35, 19-37), the “Resistance to Trypsin (500 U/ml)” value at trypsin was “Moderate (A peptide classified as medium indicates that about half (between 25% and 75%) of the HPLC peak of the treated peptide disappeared as compared to the HPLC peak of the untreated peptide)”. Further, at pepsin, the “Resistance to Pepsin (500 U/ml)” value is on record as “High (A peptide classified as high indicates that the majority (at least 75%) of the HPLC peak of the treated peptide is still present as compared to the HPLC peak of the untreated peptide)”.

As for `CC[C@H](C)[C@@H]1NC(=O)[C@@H]2CSSC[C@@H]3NC(=O)[C@H](CCC(N)=O)NC(=O)[C@H](CO)NC(=O)[C@H]([C@@H](C)O)NC(=O)[C@H](CC(N)=O)NC(=O)[C@H](CO)NC(=O)[C@@H](NC(=O)[C@H](CCCCN)NC(=O)[C@H](CCCCN)NC(=O)[C@H](CC(N)=O)NC(=O)[C@@H](NC(=O)[C@H](CO)NC(=O)[C@@H](NC(=O)[C@H](CCC(N)=O)NC(=O)[C@H](CO)NC(=O)CN)C(C)C)[C@@H](C)O)CSSC[C@H](NC(=O)[C@H](CCCCN)NC(=O)CNC(=O)[C@H](C)NC(=O)[C@H](C)NC(=O)[C@H](C(C)C)NC(=O)CNC(=O)[C@H](C(C)C)NC(=O)[C@H](C(C)C)NC(=O)[C@H](CCCCN)NC(=O)[C@H](CCC(=O)O)NC(=O)[C@H](CSSC[C@@H](C(=O)N[C@@H](Cc4ccc(O)cc4)C(=O)N4CCC[C@H]4C(=O)O)NC1=O)NC(=O)[C@H]([C@@H](C)O)NC(=O)[C@H](CCCCN)NC(=O)[C@H](Cc1ccc(O)cc1)NC3=O)C(=O)N[C@@H](CCSC)C(=O)N[C@@H](CC(N)=O)C(=O)NCC(=O)N[C@@H](CCCCN)C(=O)N2` [compound 18] (H-GSQVSTNKKCSNTSQCYKTCEKVVGVAAGKCMNGKCICYP-OH; disulfide 10-31, 16-36, 20-38), at trypsin, the “Resistance to Trypsin (500 U/ml)” value is “Low (A peptide classified as low indicates that the majority (over 75%) of the HPLC peak of the treated peptide disappeared as compared to the HPLC peak of the untreated peptide)”. Also, the “Resistance to Pepsin (500 U/ml)” value at pepsin is recorded as “High (A peptide classified as high indicates that the majority (at least 75%) of the HPLC peak of the treated peptide is still present as compared to the HPLC peak of the untreated peptide)”.

For `CC[C@H](C)[C@H](NC(=O)[C@H](CCCNC(=N)N)NC(=O)[C@@H](NC(=O)[C@H](CO)NC(=O)CN)C(C)C)C(=O)N1CCC[C@H]1C(=O)N[C@H](C(=O)N[C@@H](CO)C(=O)N[C@H]1CSSC[C@@H]2NC(=O)[C@H](CCCCN)NC(=O)CNC(=O)[C@H](Cc3ccccc3)NC(=O)[C@H](CCCNC(=N)N)NC(=O)[C@H](CCSC)NC(=O)CNC(=O)[C@H](C)NC(=O)[C@H](CC(=O)O)NC(=O)[C@H](CCCCN)NC(=O)[C@@H]3CSSC[C@@H](C(=O)N[C@H](C(=O)N4CCC[C@H]4C(=O)N[C@@H](CCCCN)C(=O)O)[C@@H](C)O)NC(=O)[C@H](CC(=O)O)NC(=O)[C@H](CSSC[C@H](NC(=O)[C@H](CCC(N)=O)NC(=O)CNC(=O)[C@H](CO)NC(=O)[C@H](Cc4c[nH]cn4)NC(=O)[C@H](CCCCN)NC1=O)C(=O)N[C@@H](CC(C)C)C(=O)N[C@@H](CCCCN)C(=O)N1CCC[C@H]1C(=O)N3)NC(=O)[C@H](CCCCN)NC(=O)CNC(=O)[C@H](CC(N)=O)NC(=O)[C@H](CCSC)NC2=O)C(C)C` [compound 24] (H-GSVRIPVSCKHSGQCLKPCKDAGMRFGKCMNGKCDCTPK-OH; disulfide 9-29, 15-34, 19-36), the “Resistance to Trypsin (500 U/ml)” value at trypsin is given as “Low (A peptide classified as low indicates that the majority (over 75%) of the HPLC peak of the treated peptide disappeared as compared to the HPLC peak of the untreated peptide)”. The “Resistance to Pepsin (500 U/ml)” value at pepsin is “High (A peptide classified as high indicates that the majority (at least 75%) of the HPLC peak of the treated peptide is still present as compared to the HPLC peak of the untreated peptide)”.
